In patent publication US20250320228A1, “PYRIDO[3,2-D]PYRIMIDINES AS HPK1 INHIBITORS” (Merck Patent GmbH, priority 2022, published 2025):
Where a name gives a salt, the structure may show the parent alone.

How the values were obtained:
HPK1 pSLP76 (Ser376) = test: Cellular assay phospho-SLP-76 (Ser376); assay type: cell-based, human; conditions: SLP76 Ser376 phosphorylation after αCD3/αCD28 stimulation; Jurkat (human) or EL-4 (mouse) cells, table does not say which; read-out: HPK1 pSLP76 IC50
Description: Cellular Assay—Phospho-SLP-76 (Ser376).
Inhibition of HPK1 enzymatic activity in cells was determined by detection of SLP76 phosphorylation at Ser376 residue in lysate from Jurkat (human) and EL-4 (mouse) cells. Jurkat and EL-4 cells express both HPK1 and SLP76 naturally. All cells were cultured in RPMI 1640 media containing 10% heat inactivated fetal bovine serum (FBS) and 1× Penicillin-Streptomycin. In either Jurkat or El-4 assay, cells were pre-incubated with test compounds prior to T cell stimulation by respective αCD3/αCD28 Dynabeads™. For detection, plates were read on the Envision and percent inhibition and IC50 were determined by Smart fit in Genedata Analyzer.
For Jurkat cells: 35 μL cell suspension were dispensed at a density of 30,000 cells/well in 384-well plates containing HBSS (Gibco, 14025076)+0.1% BSA). 10-point logarithmic serial dilution of test compounds in DMSO were prepared by a Hamilton automated liquid handling robot and 35 nL was transferred into each well by an Echo liquid handler. After 60 min. pre-incubation, the cells were stimulated by adding 5 μL human T activator αCD3/αCD28 Dynabeads™ (Gibco, 11132D) at 1.2×107 beads/ml for 15 minutes at 37° C. Detection of Ser376 phosphorylation status was accomplished by first adding 10 μL of 5× AlphaLISA lysis buffer (Perkin Elmer, ALSU-PSLP-A500) to each well of the cell plate using a Multidrop Combi (5840300), followed by 20 minutes shaking. 10 μL cell lysate from each treatment were then transferred to a white 384-well plate (Corning 3572) and incubated with AlphaLISA acceptor beads for one hour (AlphaLISA SureFire Ultra p-SLP76 (Ser376), Perkin Elmer, ALSU-PSLP-A500), and donor beads for additional 2 hours at room temperature in the dark. […]

[1] = molecular target: full-length human HPK1 (MAP4K1) (Homo sapiens (Human), UniProt Q92918); test: HPK1 kinase assay (biochemical, ADP-Glo); conditions: GST-HPK1 3.2 nM, 10 μM ATP, MBP substrate, ADP-Glo; read-out: HPK1 enzymatic IC50
From the text: HPK1 kinase assay (Biochemical assay).
A recombinant fusion protein consisting of full-length human HPK1 (MAP4K1) with an N-terminal Glutatione S-transferase (GST) tag was produced in insect cells Sf21 using the baculovirus expression system. GST-HPK1 protein was purified from cell lysates by glutathione Sepharose affinity chromatography. The assay is run in three continuous steps: 1) the HPK1 enzymatic kinase reaction, 2) an ATP depletion, and 3) the ADP detection, the steps 2 and 3 are performed with ADP-Glo™ Kinase Assay kit from Promega (V9101). Test compounds were prepared by 10-point serial dilution in dimethyl sulfoxide (DMSO) and 100 nL of each dilution was spotted onto a 384-well Optiplate (Perkin Elmer and Cat #6007299) by Labcyte Echo. 5 μL kinase reaction buffer (0.02% Brij-35, 2 mM DTT, 50 mM HEPES pH 7.5, MgCl2 10 mM, BSA 0.01% and β-glycerophosphate 12.5 mM) containing HPK1 (3.2 nM) enzyme was transferred to each well and incubated for 15 minutes at room temperature at 60% humidity. The enzymatic reaction was started by adding 5 μl of Start-Mix (10 μM ATP and 3.235 μM MBP). After 120 minutes, the reaction was stopped by adding 5 μL of ADP-Glo reagent (Promega, V9101) and incubating for 40 min. in the dark at 23° C. To determine the level of ADP, 10 μl ADP-Glo Detection solution was added and incubated for 1 hour at 23° C. in the dark. The plate was transferred to a Perkin Elmer EnVision (2104 Multilabel Reader) for luminescence detection and percent inhibition activity and IC50 value were determined using Genedata Screener.

Sequence of full-length human HPK1 (MAP4K1) (Q92918 whole entry): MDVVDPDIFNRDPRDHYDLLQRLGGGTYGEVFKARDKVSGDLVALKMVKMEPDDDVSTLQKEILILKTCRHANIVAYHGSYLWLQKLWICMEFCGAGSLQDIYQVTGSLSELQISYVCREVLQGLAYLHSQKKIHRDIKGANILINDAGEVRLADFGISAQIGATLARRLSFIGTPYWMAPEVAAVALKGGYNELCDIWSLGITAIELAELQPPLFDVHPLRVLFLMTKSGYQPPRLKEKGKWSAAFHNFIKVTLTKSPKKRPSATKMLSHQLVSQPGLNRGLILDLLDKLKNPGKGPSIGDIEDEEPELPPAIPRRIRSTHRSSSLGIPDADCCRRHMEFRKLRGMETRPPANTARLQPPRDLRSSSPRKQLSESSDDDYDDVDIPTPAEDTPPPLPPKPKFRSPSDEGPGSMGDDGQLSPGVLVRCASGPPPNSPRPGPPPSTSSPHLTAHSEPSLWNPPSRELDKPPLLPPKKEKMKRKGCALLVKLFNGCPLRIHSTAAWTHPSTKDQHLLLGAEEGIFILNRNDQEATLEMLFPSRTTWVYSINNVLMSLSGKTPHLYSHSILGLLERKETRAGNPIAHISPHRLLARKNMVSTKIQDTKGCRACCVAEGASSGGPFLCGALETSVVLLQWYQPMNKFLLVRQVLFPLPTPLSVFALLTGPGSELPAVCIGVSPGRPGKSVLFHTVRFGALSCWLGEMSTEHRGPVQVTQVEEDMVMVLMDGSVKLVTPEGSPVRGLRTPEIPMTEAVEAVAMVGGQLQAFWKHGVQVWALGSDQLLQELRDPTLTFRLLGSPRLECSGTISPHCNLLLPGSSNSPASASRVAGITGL

Question: Which results are given for `COCCOc1ccc(-c2cc(C(N)=O)c3ncnc(N[C@H]4CCCNC4)c3n2)c(C#N)c1` [Example 46, (S)-6-(2-cyano-4-(2-methoxyethoxy)phenyl)-4-(piperidin-3-ylamino)pyrido[3,2-d]pyrimidine-8-carboxamide]?
Answer: IC50 (HPK1 pSLP76 (Ser376)): > 1000 nM; IC50 [1]: < 100 nM

Question: What does the source list for `C[C@@H]1CN(Cc2ccc(-c3cc(C(N)=O)c4ncnc(N[C@H]5CCCNC5)c4n3)cc2)C[C@@H](C)O1` [Example 68, 6-(4-[[(2R,6R)-2,6-dimethylmorpholin-4-yl]methyl]phenyl)-4-[(3S)-piperidin-3-ylamino]pyrido[3,2-d]pyrimidine-8-carboxamide]?
Answer: IC50 (HPK1 pSLP76 (Ser376)): 500 to 1000 nM; IC50 [1]: < 100 nM

Question: For `COCCOc1ccc(-c2cc(C(N)=O)c3ncnc(N[C@H]4CNCC[C@@H]4F)c3n2)cc1` [Example 49, 4-(((3S,4S)-4-fluoropiperidin-3-yl)amino)-6-(4-(2-methoxyethoxy)phenyl)pyrido[3,2-d]pyrimidine-8-carboxamide], which IC50 (HPK1 pSLP76 (Ser376)) is on record?
Answer: The IC50 was > 1000 nM.

Question: What about the IC50 [1] of the same molecule?
Answer: The IC50 was > 1000 nM.

Question: `CC(C)(O)COc1ccc(-c2cc(C(N)=O)c3ncnc(N[C@H]4CCCNC4)c3n2)cc1` [Example 62, 6-[4-(2-hydroxy-2-methylpropoxy)phenyl]-4-[(3S)-piperidin-3-ylamino]pyrido[3,2-d]pyrimidine-8-carboxamide] was tested. Which IC50 (HPK1 pSLP76 (Ser376)) did it give?
Answer: Its IC50 is < 500 nM.

Question: What about the IC50 [1] of the same molecule?
Answer: Its IC50 is < 100 nM.

Question: What does the source list for `COCCOc1ccc(-c2cc(C(N)=O)c3ncnc(N[C@@H]4CNCC[C@H]4F)c3n2)cc1` [Example 48, 4-(((3R,4R)-4-fluoropiperidin-3-yl)amino)-6-(4-(2-methoxyethoxy)phenyl)pyrido[3,2-d]pyrimidine-8-carboxamide]?
Answer: IC50 (HPK1 pSLP76 (Ser376)): < 500 nM; IC50 [1]: < 100 nM

Question: How did the IC50 (HPK1 pSLP76 (Ser376)) turn out when `NC(=O)c1cc(-c2ccc(CN3C4COCC3COC4)cc2)nc2c(N[C@H]3CCCNC3)ncnc12` [Example 64, 6-(4-[3,7-dioxa-9-azabicyclo [3.3.1]nonan-9-ylmethyl]phenyl)-4-[(3S)-piperidin-3-ylamino]pyrido[3,2-d]pyrimidine-8-carboxamide] was run?
Answer: The IC50 was < 500 nM.

Question: And the IC50 [1]?
Answer: Its IC50 is < 100 nM.

Question: How did the IC50 (HPK1 pSLP76 (Ser376)) turn out when `NC(=O)c1cc(-c2ccc(F)cc2)nc2c(N[C@H]3CCCNC3)ncnc12` [Example 76, 6-(4-fluorophenyl)-4-{[(3S)-piperidin-3-yl]amino}pyrido[3,2-d]pyrimidine-8-carboxamide] was run?
Answer: Its IC50 is < 500 nM.

Question: What about the IC50 [1] of the same molecule?
Answer: The IC50 was < 100 nM.

Question: With `C[C@H]1CN(Cc2ccc(-c3cc(C(N)=O)c4ncnc(N[C@H]5CCCNC5)c4n3)cc2)CCO1` [Example 27, 6-(4-[[(2S)-2-methylmorpholin-4-yl]methyl]phenyl)-4-[(3S)-piperidin-3-ylamino]pyrido [3,2-d]pyrimidine-8 carboxamide dihydrochloride] as the molecule, how does the IC50 (HPK1 pSLP76 (Ser376)) read?
Answer: The IC50 was < 500 nM.

Question: What about the IC50 [1] of the same molecule?
Answer: Its IC50 is < 100 nM.

Question: What does the source list for `NC(=O)c1cc(-c2ccc(C3(N4CCOCC4)CC3)cc2)nc2c(N[C@H]3CCCNC3)ncnc12` [Example 28, 6-[4-[1-(morpholin-4-yl)cyclopropyl]phenyl]-4-[(3S)-piperidin-3-ylamino]pyrido [3,2-d]pyrimidine-8-carboxamide]?
Answer: IC50 (HPK1 pSLP76 (Ser376)): < 500 nM; IC50 [1]: < 100 nM

Question: `N#Cc1ccccc1-c1cc(C(N)=O)c2ncnc(N[C@H]3CCCNC3)c2n1` [Example 86, 6-(2-cyanophenyl)-4-{[(3S)-piperidin-3-yl]amino}pyrido[3,2-d]pyrimidine-8-carboxamide] was tested. Which IC50 (HPK1 pSLP76 (Ser376)) did it give?
Answer: Its IC50 is 500 to 1000 nM.

Question: What about the IC50 [1] of the same molecule?
Answer: Its IC50 is < 100 nM.

Question: How did the IC50 (HPK1 pSLP76 (Ser376)) turn out when `NC(=O)c1cc(-c2ccc(CN3CCO[C@H](C(F)(F)F)C3)cc2)nc2c(N[C@H]3CCCNC3)ncnc12` [Example 57, 4-[(3S)-piperidin-3-ylamino]-6-(4-[[(2S)-2(trifluoromethyl)morpholin-4-yl]methyl]phenyl) pyrido [3,2-d]pyrimidine-8-carboxamide] was run?
Answer: Its IC50 is < 500 nM.

Question: What about the IC50 [1] of the same molecule?
Answer: Its IC50 is < 100 nM.

Question: `NC(=O)c1cc(-c2ccc(OCC3(O)CC3)cc2)nc2c(N[C@@H]3CNCCC3(F)F)ncnc12` [Example 16, (R)-4-((4,4-difluoropiperidin-3-yl)amino)-6-(4-((1-hydroxycyclopropyl)methoxy)phenyl)pyrido[3,2-d]pyrimidine-8-carboxamide] was tested. Which IC50 (HPK1 pSLP76 (Ser376)) did it give?
Answer: Its IC50 is < 500 nM.

Question: And the IC50 [1]?
Answer: The IC50 was < 100 nM.

Question: What does the source list for `NC(=O)c1cc(-c2ccc(CN3CC4CC(C3)O4)cc2)nc2c(N[C@H]3CCCNC3)ncnc12` [Example 63, 6-(4-[6-oxa-3-azabicyclo [3.1.1]heptan-3-ylmethyl]phenyl)-4-[(3S)-piperidin-3-ylamino]pyrido[3,2-d]pyrimidine-8-carboxamide]?
Answer: IC50 (HPK1 pSLP76 (Ser376)): < 500 nM; IC50 [1]: < 100 nM

Question: Which IC50 (HPK1 pSLP76 (Ser376)) does the source give for `NC(=O)c1cc(-c2cc(F)c(OCC3(O)CCOCC3)c(F)c2)nc2c(N[C@@H]3CNC[C@@H](F)C3)ncnc12` [Example 37, 6-(3,5-difluoro-4-((4-hydroxytetrahydro-2H-pyran-4-yl)methoxy)phenyl)-4-(((3S,5S)-5-fluoropiperidin-3-yl)amino)pyrido[3,2-d]pyrimidine-8-carboxamide] here?
Answer: The IC50 was < 500 nM.

Question: And the IC50 [1]?
Answer: Its IC50 is < 100 nM.

Question: Which results are given for `Cn1cc(-c2cc(C(N)=O)c3ncnc(N[C@H]4CCCNC4)c3n2)cc1C#N` [Example 83, 6-(5-cyano-1-methyl-1H-pyrrol-3-yl)-4-{[(3S)-piperidin-3-yl]amino}pyrido[3,2-d]pyrimidine-8-carboxamide]?
Answer: IC50 (HPK1 pSLP76 (Ser376)): < 500 nM; IC50 [1]: < 100 nM

Question: With `NC(=O)c1cc(-c2ccc(CN3C4CCC3COC4)cc2)nc2c(N[C@H]3CCCNC3)ncnc12` [Example 66, 6-(4-[3-oxa-8-azabicyclo [3.2.1]octan-8-ylmethyl]phenyl)-4-[(3S)-piperidin-3-ylamino]pyrido[3,2-d]pyrimidine-8-carboxamide] as the molecule, how does the IC50 (HPK1 pSLP76 (Ser376)) read?
Answer: The IC50 was < 500 nM.

Question: And the IC50 [1]?
Answer: Its IC50 is < 100 nM.

Question: How did the IC50 (HPK1 pSLP76 (Ser376)) turn out when `CC(C)(O)C(F)(F)Oc1ccc(-c2cc(C(N)=O)c3ncnc(N[C@H]4CCCNC4)c3n2)cc1` [Example 47, (S)-6-(4-(1,1-difluoro-2-hydroxy-2-methylpropoxy)phenyl)-4-(piperidin-3-ylamino)pyrido[3,2-d]pyrimidine-8-carboxamide] was run?
Answer: The IC50 was 500 to 1000 nM.

Question: What about the IC50 [1] of the same molecule?
Answer: Its IC50 is < 100 nM.

Question: What does the source list for `CC(C)(O)COc1ccc(-c2cc(C(N)=O)c3ncnc(N[C@@H]4CNC[C@@H](F)C4)c3n2)cc1` [Example 12, 4-(((3S,5S)-5-fluoropiperidin-3-yl)amino)-6-(4-(2-hydroxy-2-methylpropoxy)phenyl)pyrido[3,2-d]pyrimidine-8-carboxamide]?
Answer: IC50 (HPK1 pSLP76 (Ser376)): < 500 nM; IC50 [1]: < 100 nM

Question: What does the source list for `Cc1nn(C)cc1-c1cc(C(N)=O)c2ncnc(N[C@@H]3CNC[C@@H](F)C3)c2n1` [Example 3, 6-(1,3-dimethyl-1H-pyrazol-4-yl)-4-(((3S,5S)-5-fluoropiperidin-3-yl)amino)pyrido[3,2-d]pyrimidine-8-carboxamide]?
Answer: IC50 (HPK1 pSLP76 (Ser376)): < 500 nM; IC50 [1]: < 100 nM

Question: Which IC50 (HPK1 pSLP76 (Ser376)) does the source give for `NC(=O)c1cc(-c2ccc(CN3CCOC(F)(F)C3)cc2)nc2c(N[C@H]3CCCNC3)ncnc12` [Example 70, 6-[4-[(2,2-difluoromorpholin-4-yl)methyl]phenyl]-4-[(3S)-piperidin-3-ylamino]pyrido[3,2-d]pyrimidine-8-carboxamide] here?
Answer: The IC50 was 500 to 1000 nM.

Question: And the IC50 [1]?
Answer: Its IC50 is < 100 nM.

Question: How did the IC50 (HPK1 pSLP76 (Ser376)) turn out when `NC(=O)c1cc(-c2cc(F)c(OCC3(O)CCC3)c(F)c2)nc2c(N[C@@H]3CNC[C@@H](F)C3)ncnc12` [Example 33, 6-(3,5-difluoro-4-((1-hydroxycyclobutyl)methoxy)phenyl)-4-(((3S,5S)-5-fluoropiperidin-3-yl)amino)pyrido[3,2-d]pyrimidine-8-carboxamide] was run?
Answer: Its IC50 is < 500 nM.

Question: And the IC50 [1]?
Answer: Its IC50 is < 100 nM.

Question: With `NC(=O)c1cc(-c2ccc(OC(F)(F)F)cc2)nc2c(N[C@H]3CCCNC3)ncnc12` [Example 31, 4-[(3S)-piperidin-3-ylamino]-6-[4-(trifluoromethoxy)phenyl]pyrido[3,2-d]pyrimidine-8-carboxamide] as the molecule, how does the IC50 (HPK1 pSLP76 (Ser376)) read?
Answer: The IC50 was 500 to 1000 nM.

Question: What about the IC50 [1] of the same molecule?
Answer: The IC50 was < 100 nM.
